The results in this text go back to US20170173105A1, “AUTOASSEMBLING PEPTIDES FOR THE TREATMENT OF PULMONARY LEAKAGE” (3-D MATRIX, LTD., priority 2014, published 2017).

Series [1] deals with pleural defects in swine lungs. The series can be described thus: Burst pressure of peptide hydrogels as air sealants on pleural defects of swine lungs. The following applies: for ranking of burst pressures: 16 G pleural defects, 2.5% RADA16+0.25 M CaCl2 and 1.5% IEIK13. The text has this: Swine lungs were obtained from freshly euthanized pigs. An endotracheal tube was inserted through the trachea and primary bronchus into the lung of interest. Pressure was supplied to the lungs with the use of a manual endotracheal intubation pump. The trachea was tied off to prevent air leakage around the tube. The primary bronchus of the other lung was clamped to direct all airflow to the lung of interest. A manometer was used to measure the pressure of air directed into the lungs to induce expansion.
The self-assembling peptide hydrogels were comprised of Ac-RADARADARADARADA-NH2 (i.e. RADA16) (SEQ ID NO: 1), Ac-KLDLKLDLKLDL-NH2 (i.e. KLD12) (SEQ ID NO: 3), or Ac-IEIKIEIKIEIKI-NH2 (i.e. IEIK13) (SEQ ID NO: 2) with either RADA16 or KLD12 alone or mixed with 0.250 M calcium chloride. If alone, the peptides were reconstituted in deionized water. If, however the peptides were reconstituted with 0.250 M calcium chloride solution, the peptides were reconstituted first in deionized water, and subsequently, a 0.500 M solution of calcium chloride was mixed in at a 1:1 ratio.
The pleural defects were created using three different methods to measure the efficacy of the self-assembling peptide hydrogels: (1) A 16 gauge needle was used to puncture the lung and pleura, (2) A 5×5 mm area was measured and the lung and pleura were clipped using a pair of surgical scissors, and (3) A lobectomy (i.e. a complete resection of one lobe of the lung of interest). A 0.9% saline solution was streamed over the defect area and the location of the defect was identified by using the endotracheal intubation pump system to introduce air and observing the release of air bubbles.
Once the location of the defect was identified, the hydrogels were applied to the defect area via two different methods: (1) the hydrogel was applied topically by injecting through a syringe onto the defect area, and (2) the hydrogel was injected into the defect through an 18 gauge needle with overflow to cover the defect area topically. After a relaxation period of 2 min, pressure was applied through the endotracheal intubation pump until a burst pressure was identified. For any additional tests, airflow to the previously tested defect was cut off using a surgical clamp.

Series [2] is described as follows: Rheological comparison of peptide hydrogels mixed with Ringer's Solution or indigo carmine. Format: physicochemical. The text has this:
The two gels were: (1) a combination of the self-assembling peptide with a well-known cation/anion solution, Ringer's Solution (pH 5.3), used in the medical field and (2) a combination of the self-assembling peptide with a well-known contrast agent, indigo carmine, which is a dye solution containing sulfate (anion) and sodium (cation) ions. Indigo carmine contains indigoindisulfonate sodium (C16H8N2Na2O8S2), water, and sodium citrate […] for pH adjustment. Using indigo carmine powder, a 1% solution was prepared for use in experimentation. This corresponds to 10 mg/1 ml of water. The concentration of indigo carmine solution used in experimentation was 0.00585% in water.
Indigo carmine powder was used to prepare a 1% solution in deionized (DI) water. Using IEIK13 powder, a 2 percent solution was prepared using DI water. The amount of IEIK was weighed out and the appropriate amount of DI water was added gently down the side of the container. Mixing was accomplished by vortexing for about 30 seconds, and then sonicating for 30 seconds. The solution was then centrifuged for about 10 to about 15 minutes at […]. The solution may undergo further vortexing and centrifuging until the solution is clear and without bubbles.
To obtain a final concentration of 0.00585% indigo carmine, the necessary amount of 1% IC is added to the appropriate amount of DI water to dilute 2% IEIK to 1.5% IEIK. […]

Series [3] can be described thus: Rheological properties of peptide solutions (1%) before and after DMEM treatment (rheometer). Format: physicochemical. The following applies: DMEM 2 minutes, compared with weaker peptide solutions (i.e. PuraMatrix®). As for the experimental part: The effects of Dulbecco's modified Eagle's medium (DMEM) (pH 7.4) on the rheological properties of IEIK13, KLD12, and PuraMatrix® were evaluated on a rheometer (AR500, TA Instruments) with 40 mm plates. DMEM is generally a cell culture medium that contains 6.4 g/L of NaCl, 3.4 g/L NaHCO3 (sodium bicarbonate), minor amounts of other salts, various amino acids, and 4.5 g/L of glucose. The pH level of DMEM is generally 7.2±0.2 and the osmolality is 335±30 mOsm/Kg H2O; both measurements are close to human physiological fluids such as blood.
Peptide solutions (1%) were kept at 4° C. for at least 48 hours before testing. To perform the experiment, 1 mL of peptide solution was gently pipetted and placed on the plate of the rheometer. 2 mL of DMEM solution was gently added around the peptide solution. The peptide solution was treated with DMEM for two minutes, then the media was removed, and the plates were placed at a measuring geometry gap at around 450 μm. Measurements were performed at 37° C. after 2 min of relaxation time. Frequency tests were performed from 1 rad/s to 100 rad/s at 1 Pa of oscillation stress.
The rheological properties of the peptides (1%) were compared before and after DMEM treatment for 2 minutes, as shown in FIG. 1A. […]

Turning to “Arg-Ala-Asp-Ala-Arg-Ala-Asp-Ala-Arg-Ala-Asp-Ala-Arg-Ala-Asp-Ala [PuraMatrix ®]”, the “effect of increasing exposure time on burst pressure” value in series [1] (2.5% RADA16, 16 G pleural defect, varying time points) is reported as “increased the burst pressure”. Also, the “effect of needle gauge of pleural defect on burst pressure” value in series [1] (2.5% RADA16 applied topically, 14, 16, 18, and 22 gauge needles) is listed as “negligible changes in burst pressures”. In series [1] (2.5% RADA16 topically, 16 G pleural defect, 0.154 M NaCl gently massaged in), the “effect of topically added NaCl solution on burst pressure” value was “slightly increased”. Also, the “ranking of burst pressures” value in series [1] is reported as “best burst pressures”. Moreover, in series [2] (mixed with Ringer's Solution (pH 5.3)), the “properties of tailored hydrogel” value was “stiffer gel with faster gelation kinetics that maintains reversibility”.
Take “Ile-Glu-Ile-Lys-Ile-Glu-Ile-Lys-Ile-Glu-Ile-Lys-Ile [IEIK13]”: the “fold increase of storage modulus after DMEM treatment” value in series [3] was “lower-fold increase”. Further, the “ranking of burst pressures” value in series [1] was “best burst pressures”. For the same substance, the “properties of tailored hydrogel” value in series [2] (1.5% IEIK mixed with 0.00585% indigo carmine) was “maintains stiffness, reversibility, and gelation kinetics”.
